# Experimental data from US10420341B2, “Herbicidal phenylpyrimidines” (BASF SE, priority 2015, dated 2019).
# How the values were obtained:
# APESV = assay: greenhouse pre-emergence herbicidal test; type: in vivo, Apera spica-venti; conditions: pre-emergence method, scale from 0 to 100
# Excerpt: (§1) The seeds of the test plants were sown separately for each species. For the pre-emergence treatment, the active ingredients, which had been suspended or emulsified in water, were applied directly after sowing by means of finely distributing nozzles. The containers were irrigated gently to promote germination and growth and subsequently covered with transparent plastic hoods until the plants had rooted. This cover caused uniform germination of the test plants, unless this had been impaired by the active ingredients. Depending on the species, the plants were kept at 10-25° C. or 20-35° C., respectively. The test period extended over 2 to 4 weeks. During this time, the plants were tended, and their response to the individual treatments was evaluated. Evaluation was carried out using a scale from 0 to 100. 100 means no emergence of the plants, or complete destruction of at least the aerial moieties, and 0 means no damage, or normal course of growth. […] The plants used in the greenhouse experiments were of the following species: [table]
# ALOMY = assay: greenhouse post-emergence herbicidal test; type: in vivo, Alopercurus myosuroides; conditions: post-emergence method, scale from 0 to 100
# Excerpt: (§2) The seeds of the test plants were sown separately for each species. For the post-emergence treatment, the test plants were first grown to a height of 3 to 15 cm, depending on the plant habit, and only then treated with the active ingredients which had been suspended or emulsified in water. For this purpose, the test plants were either sown directly and grown in the same containers, or they were first grown separately as seedlings and transplanted into the test containers a few days prior to treatment. Depending on the species, the plants were kept at 10-25° C. or 20-35° C., respectively. The test period extended over 2 to 4 weeks. During this time, the plants were tended, and their response to the individual treatments was evaluated. Evaluation was carried out using a scale from 0 to 100. 100 means no emergence of the plants, or complete destruction of at least the aerial moieties, and 0 means no damage, or normal course of growth. […] The plants used in the greenhouse experiments were of the following species: [table]
# ECHCG [1] = assay: greenhouse post-emergence herbicidal test; type: in vivo, Echinocloa crus-galli; conditions: post-emergence method, scale from 0 to 100
# Excerpt: as §2
# ECHCG [2] = assay: greenhouse pre-emergence herbicidal test; type: in vivo, Echinocloa crus-galli; conditions: pre-emergence method, scale from 0 to 100
# Excerpt: as §1
smiles,measurement,setting,value
N#Cc1ccccc1-c1cnc(C2CC2)nc1C(=O)O [example 154],herbicidal activity against APESV,APESV; application rate 500 g/ha,very good (a very good herbicidal activity is given at values of at least 85)
same,herbicidal activity against ALOMY,ALOMY; application rate 500 g/ha,very good (a very good herbicidal activity is given at values of at least 85)
same,herbicidal activity against ECHCG,ECHCG [1]; application rate 500 g/ha,good (A good herbicidal activity is given at values of at least 70)
same,herbicidal activity against ECHCG,ECHCG [2]; application rate 500 g/ha,very good (a very good herbicidal activity is given at values of at least 85)
O=C(O)c1nc(C2CC2)ncc1-c1cc(Br)ccc1F [example 135],herbicidal activity against APESV,APESV; application rate 1000 g/ha,very good (a very good herbicidal activity is given at values of at least 85)
same,herbicidal activity against ALOMY,ALOMY; application rate 1000 g/ha,herbicidal activity
COc1ccc(Br)c(-c2cnc(C3CC3)nc2C(=O)O)c1 [example 153],herbicidal activity against APESV,APESV; application rate 1000 g/ha,very good (a very good herbicidal activity is given at values of at least 85)
same,herbicidal activity against ECHCG,ECHCG [1]; application rate 1000 g/ha,very good (a very good herbicidal activity is given at values of at least 85)
COc1ncc(-c2ccccc2C)c(C(=O)O)n1 [example 52],herbicidal activity against APESV,APESV; application rate 2000 g/ha,very good (a very good herbicidal activity is given at values of at least 85)
same,herbicidal activity against ALOMY,ALOMY; application rate 2000 g/ha,good (A good herbicidal activity is given at values of at least 70)
same,herbicidal activity against ECHCG,ECHCG [2]; application rate 2000 g/ha,good (A good herbicidal activity is given at values of at least 70)
COC(=O)COC(=O)c1nc(C2CC2)ncc1-c1ccccc1Cl [example 261],herbicidal activity against APESV,APESV; application rate 1000 g/ha,very good (a very good herbicidal activity is given at values of at least 85)
same,herbicidal activity against ALOMY,ALOMY; application rate 1000 g/ha,very good (a very good herbicidal activity is given at values of at least 85)
same,herbicidal activity against ECHCG,ECHCG [1]; application rate 1000 g/ha,very good (a very good herbicidal activity is given at values of at least 85)
same,herbicidal activity against ECHCG,ECHCG [2]; application rate 1000 g/ha,very good (a very good herbicidal activity is given at values of at least 85)
COC(=O)c1nc(C2CC2)ncc1-c1c(Cl)cccc1OC [example 202],herbicidal activity against APESV,APESV; application rate 1000 g/ha,good (A good herbicidal activity is given at values of at least 70)
same,herbicidal activity against ALOMY,ALOMY; application rate 1000 g/ha,very good (a very good herbicidal activity is given at values of at least 85)
same,herbicidal activity against ECHCG,ECHCG [1]; application rate 1000 g/ha,good (A good herbicidal activity is given at values of at least 70)
same,herbicidal activity against ECHCG,ECHCG [2]; application rate 1000 g/ha,very good (a very good herbicidal activity is given at values of at least 85)
CCc1ncc(-c2cc(C)ccc2Cl)c(C(=O)O)n1 [example 7],herbicidal activity against APESV,APESV; application rate 1000 g/ha,very good (a very good herbicidal activity is given at values of at least 85)
same,herbicidal activity against ECHCG,ECHCG [2]; application rate 1000 g/ha,very good (a very good herbicidal activity is given at values of at least 85)
COC(=O)c1nc(OC)ncc1-c1cc(F)ccc1C [example 62],herbicidal activity against APESV,APESV; application rate 1000 g/ha,very good (a very good herbicidal activity is given at values of at least 85)
same,herbicidal activity against ECHCG,ECHCG [2]; application rate 1000 g/ha,good (A good herbicidal activity is given at values of at least 70)
COC(=O)c1nc(C(C)C)ncc1-c1cc(C)ccc1C [example 38],herbicidal activity against APESV,APESV; application rate 1000 g/ha,good (A good herbicidal activity is given at values of at least 70)
same,herbicidal activity against ECHCG,ECHCG [2]; application rate 1000 g/ha,very good (a very good herbicidal activity is given at values of at least 85)
COCOc1ccccc1-c1cnc(C2CC2)nc1C(=O)O [example 180],herbicidal activity against APESV,APESV; application rate 1000 g/ha,very good (a very good herbicidal activity is given at values of at least 85)
same,herbicidal activity against ECHCG,ECHCG [1]; application rate 1000 g/ha,very good (a very good herbicidal activity is given at values of at least 85)
same,herbicidal activity against ECHCG,ECHCG [2]; application rate 1000 g/ha,very good (a very good herbicidal activity is given at values of at least 85)
COc1ccc(-c2cnc(C3CC3)nc2C(=O)O)c(Cl)c1 [example 296],herbicidal activity against APESV,APESV; application rate 1000 g/ha,very good (a very good herbicidal activity is given at values of at least 85)
COc1ccc(OC)c(-c2cnc(C3CC3)nc2C(=O)O)c1 [example 179],herbicidal activity against APESV,APESV; application rate 2000 g/ha,very good (a very good herbicidal activity is given at values of at least 85)
same,herbicidal activity against ECHCG,ECHCG [1]; application rate 2000 g/ha,very good (a very good herbicidal activity is given at values of at least 85)
COc1ccccc1-c1cnc(C2CC2)nc1C(=O)O [example 177],herbicidal activity against APESV,APESV; application rate 1000 g/ha,very good (a very good herbicidal activity is given at values of at least 85)
same,herbicidal activity against ECHCG,ECHCG [1]; application rate 1000 g/ha,good (A good herbicidal activity is given at values of at least 70)
same,herbicidal activity against ECHCG,ECHCG [2]; application rate 1000 g/ha,very good (a very good herbicidal activity is given at values of at least 85)
COc1ccc(-c2cnc(SC)nc2C(=O)O)c(C)c1 [example 100],herbicidal activity against ECHCG,ECHCG [1]; application rate 2000 g/ha,good (A good herbicidal activity is given at values of at least 70)
COc1ncc(-c2ccc(C)cc2C)c(C(=O)O)n1 [example 57],herbicidal activity against APESV,APESV; application rate 1000 g/ha,very good (a very good herbicidal activity is given at values of at least 85)
same,herbicidal activity against ECHCG,ECHCG [2]; application rate 1000 g/ha,very good (a very good herbicidal activity is given at values of at least 85)
O=C(O)c1nc(C2CC2)ncc1-c1ccccc1C1CC1 [example 187],herbicidal activity against APESV,APESV; application rate 1000 g/ha,very good (a very good herbicidal activity is given at values of at least 85)
same,herbicidal activity against ECHCG,ECHCG [1]; application rate 1000 g/ha,very good (a very good herbicidal activity is given at values of at least 85)
same,herbicidal activity against ECHCG,ECHCG [2]; application rate 1000 g/ha,very good (a very good herbicidal activity is given at values of at least 85)
COC(=O)c1nc(C2CC2)ncc1-c1ccc(OC)cc1Cl [example 294],herbicidal activity against ECHCG,ECHCG [1]; application rate 1000 g/ha,good (A good herbicidal activity is given at values of at least 70)
CC(C)c1ccccc1-c1cnc(C2CC2)nc1C(=O)O [example 175],herbicidal activity against APESV,APESV; application rate 1000 g/ha,very good (a very good herbicidal activity is given at values of at least 85)
same,herbicidal activity against ECHCG,ECHCG [2]; application rate 1000 g/ha,very good (a very good herbicidal activity is given at values of at least 85)
CCc1ncc(-c2cc(C)ccc2C)c(C(=O)OC)n1 [example 23],herbicidal activity against APESV,APESV; application rate 1000 g/ha,very good (a very good herbicidal activity is given at values of at least 85)
same,herbicidal activity against ECHCG,ECHCG [2]; application rate 1000 g/ha,very good (a very good herbicidal activity is given at values of at least 85)
O=C(O)c1nc(C2CC2)ncc1-c1ccccc1[N+](=O)[O-] [example 160],herbicidal activity against APESV,APESV; application rate 1000 g/ha,very good (a very good herbicidal activity is given at values of at least 85)
same,herbicidal activity against ECHCG,ECHCG [1]; application rate 1000 g/ha,very good (a very good herbicidal activity is given at values of at least 85)
same,herbicidal activity against ECHCG,ECHCG [2]; application rate 1000 g/ha,very good (a very good herbicidal activity is given at values of at least 85)
CCc1ncc(-c2cc(Cl)ccc2C)c(C(=O)OC)n1 [example 22],herbicidal activity against APESV,APESV; application rate 1000 g/ha,good (A good herbicidal activity is given at values of at least 70)
same,herbicidal activity against ECHCG,ECHCG [2]; application rate 1000 g/ha,good (A good herbicidal activity is given at values of at least 70)
CCc1ncc(-c2ccccc2Cl)c(C(=O)OC)n1 [example 19],herbicidal activity against APESV,APESV; application rate 1000 g/ha,very good (a very good herbicidal activity is given at values of at least 85)
same,herbicidal activity against ECHCG,ECHCG [2]; application rate 1000 g/ha,very good (a very good herbicidal activity is given at values of at least 85)
COc1cc(F)ccc1-c1cnc(C2CC2)nc1C(=O)O [example 301],herbicidal activity against APESV,APESV; application rate 1000 g/ha,good (A good herbicidal activity is given at values of at least 70)
same,herbicidal activity against ECHCG,ECHCG [2]; application rate 1000 g/ha,very good (a very good herbicidal activity is given at values of at least 85)
COc1ccc(-c2cnc(C3CC3)nc2C(=O)O)c(F)c1 [example 297],herbicidal activity against APESV,APESV; application rate 1000 g/ha,very good (a very good herbicidal activity is given at values of at least 85)
COc1ccc(F)c(-c2cnc(SC)nc2C(=O)O)c1 [example 83],herbicidal activity against ECHCG,ECHCG [1]; application rate 2000 g/ha,good (A good herbicidal activity is given at values of at least 70)
CCc1ncc(-c2cc(F)ccc2C)c(C(=O)O)n1 [example 10],herbicidal activity against APESV,APESV; application rate 500 g/ha,very good (a very good herbicidal activity is given at values of at least 85)
same,herbicidal activity against ECHCG,ECHCG [2]; application rate 500 g/ha,very good (a very good herbicidal activity is given at values of at least 85)
CCc1ncc(-c2cc(C)ccc2Cl)c(C(=O)OC)n1 [example 20],herbicidal activity against APESV,APESV; application rate 1000 g/ha,very good (a very good herbicidal activity is given at values of at least 85)
same,herbicidal activity against ECHCG,ECHCG [1]; application rate 1000 g/ha,good (A good herbicidal activity is given at values of at least 70)
same,herbicidal activity against ECHCG,ECHCG [2]; application rate 1000 g/ha,very good (a very good herbicidal activity is given at values of at least 85)
COC(=O)c1nc(C2CC2)ncc1-c1cc(C)ccc1C [example 228],herbicidal activity against APESV,APESV; application rate 2000 g/ha,very good (a very good herbicidal activity is given at values of at least 85)
same,herbicidal activity against ALOMY,ALOMY; application rate 2000 g/ha,very good (a very good herbicidal activity is given at values of at least 85)
same,herbicidal activity against ECHCG,ECHCG [1]; application rate 2000 g/ha,very good (a very good herbicidal activity is given at values of at least 85)
C=Cc1ccccc1-c1cnc(C2CC2)nc1C(=O)O [example 183],herbicidal activity against APESV,APESV; application rate 500 g/ha,very good (a very good herbicidal activity is given at values of at least 85)
same,herbicidal activity against ECHCG,ECHCG [2]; application rate 500 g/ha,very good (a very good herbicidal activity is given at values of at least 85)
